According to patent US10722484B2, “Methods of cancer treatment” (K-Gen, Inc., priority 2016, dated 2020):
Like-named read-outs stand apart in the source and are kept apart here.

Columns and labels:
[1] = tested on: HL-60 human promyelocytic leukemia cells; experiment: Combination viability/proliferation assays
Description: Briefly, cells at density of 1,000-10,000 cells/well in 96-well plates or 200-1600 cells/well in 384-well plates were seeded and incubated at 37° C. for 24 hours before addition of compounds. A series of 9 different concentrations of compound stocks (500×) were prepared by 3-fold serial dilutions in DMSO. […] After 96 hours of incubation, 35 μL or 50 μL of CellTiter Glo reagent (Promega) was added to each well and luminescence was measured after 10 minutes using EnVision (PerkinElmer). Luminescence from cells treated with DMSO alone was set as Max and % of inhibition was calculated as follows: Inhibition %=(Max-Sample value)/Max*100. Data were analyzed using XLfit software (ID Business Solutions Ltd.) or GraphPad software and IC50, relative IC50, and % of top inhibition were calculated.
The top concentration for the tested PKC activator compound was set at roughly the IC50 when the same testing compound was used as a single agent assayed in the same cell line. The next dose was either 3-fold or 10-fold dilution from the top concentration.

[2] = tested on: A549 lung cancer cell line; experiment: Combination viability/proliferation assays (384-well IC50 ratio, 96-well MacSynergy II); assay type: cell-based; details: for Combination in A549: K101A (synergism/antagonism): agent assayed in combination with K101A; for Combination in A549: K101A (synergism/antagonism) / Combination in A549: K102 (synergism/antagonism): * 2-3 concentrations, # full concentration ranges; for Combination in A549: K102 (synergism/antagonism): agent assayed in combination with K102
Description: (§1) A 96-well MacSynergy II format for combination test was also used. […] The analysis was done with the SQRT(Data) scale and the four parameter Hill curve was fitted using XLfit5.1 (the MacSynergy II Excel Spreadsheet) for the inhibition data. Synergy (positive number) or Antagonism (negative number) volumes were calculated. […] Three-dimensional MacSynergy II graphs were generated where positive values indicated synergism and negative values indicated antagonism.

Panc2.13 = experiment: Combination viability/proliferation assays; assay type: cell-based
Description: as §1

HT29 = experiment: Proliferation assay (CellTiter Glo); assay type: cell-based; details: HT29 (RAS WT); 96 hours
Description: (§2) The dose range for most compounds was 4.6 nM-30 μM. The dose ranges for some compounds were adjusted downward to 0.46 nM-3 μM or 0.08 nM-0.5 μM or 0.03 nM-0.2 μM. […] The results are shown in Tables 3-6 for pancreatic cancer, lung cancer, colon/gastric cancer, and leukemia.
(§3) Other cancer cell lines having wild-type K-RAS status and K-RAS mutation at G12 were also screened using the PKC activator compounds. […] K104 was tested in a range of 0.03 nM-0.2 μM. […] The dose ranges were adjusted downward to 0.46 nM-3 μM for K102 and 0.08 nM-0.5 μM for K103 for some cell lines. The results of the screening of cancer cells lines with wild-type K-RAS status and K-RAS mutations at the G12 positions are presented in Table 7.

Colo205 = experiment: Proliferation assay (CellTiter Glo); assay type: cell-based; details: Colo205 (RAS WT); 96 hours
Description: as §2, §3

H838 = experiment: Proliferation assay (CellTiter Glo); assay type: cell-based; details: H838 (RAS WT); 96 hours
Description: as §2, §3

H1915 = experiment: Proliferation assay (CellTiter Glo); assay type: cell-based; details: H1915 (RAS WT); 96 hours
Description: as §2, §3

BxPC-3 = experiment: Proliferation assay (CellTiter Glo); assay type: cell-based; details: BxPC-3 (RAS WT); 96 hours
Description: as §2, §3

THP1 = experiment: Proliferation assay (CellTiter Glo); assay type: cell-based, human; details: 96 hours
Description: as §2

HL60 = experiment: Proliferation assay (CellTiter Glo); assay type: cell-based, human; details: 96 hours
Description: as §2

AGS = experiment: Proliferation assay (CellTiter Glo); assay type: cell-based; details: 96 hours
Description: as §2

HCT116 = experiment: Proliferation assay (CellTiter Glo); assay type: cell-based; details: 96 hours
Description: as §2

KP-4 = experiment: Proliferation assay (CellTiter Glo); assay type: cell-based; details: 96 hours
Description: as §2

SW620 = experiment: Proliferation assay (CellTiter Glo); assay type: cell-based; details: 96 hours
Description: as §2

A549 = experiment: Proliferation assay (CellTiter Glo); assay type: cell-based; details: 96 hours
Description: as §2

LS180 = experiment: Proliferation assay (CellTiter Glo); assay type: cell-based; details: 96 hours
Description: as §2

H727 = experiment: Proliferation assay (CellTiter Glo); assay type: cell-based; details: 96 hours
Description: as §2

H358 = experiment: Proliferation assay (CellTiter Glo); assay type: cell-based; details: HE58, 96 hours
Description: as §2

Capan-1 = experiment: Proliferation assay (CellTiter Glo); assay type: cell-based; details: 96 hours
Description: as §2

H441 = experiment: Proliferation assay (CellTiter Glo); assay type: cell-based; details: 96 hours
Description: as §2

MiaPaCa-2 = experiment: Proliferation assay (CellTiter Glo); assay type: cell-based; details: 96 hours

In the case of `O=C(CCCCCCC(=O)Nc1ccccc1)NO` [SAHA, suberoylanilide hydroxamic acid], the “effect in combination with K101A and K102” value [1] is reported as “moderate or minor synergistic/additive effect”, the “Combination in A549: K101A (synergism/antagonism)” value ([2]; A549) is reported as “Antagonism (minor)” and the “Combination in A549: K102 (synergism/antagonism)” value ([2]; A549) is reported as “Antagonism (minor)”.
For `O=C(c1cc(Cc2n[nH]c(=O)c3ccccc23)ccc1F)N1CCN(C(=O)C2CC2)CC1` [Olaparib], the “effect in combination with K101A” value (Panc2.13; Panc2.13, K101A at 1 μM or at 0.67 μM) was “strong synergy”, the “Combination effect, Panc2.13: K101A” value (Panc2.13; agent in combination with K101A) was “Synergism” and the “Ratio ([…] DMSO IC50/combination IC50)” value ([2]; A549, in combination with 0.0002 μM K102, NC: no change) was 0.78. For the same compound, the “Ratio ([…] DMSO IC50/combination IC50)” value ([2]; A549, in combination with 0.002 μM K102, NC: no change) was 1.43, the “Ratio ([…] DMSO IC50/combination IC50)” value ([2]; A549, in combination with 0.005 μM K101A, NC: no change) was 0.91 and the “Ratio ([…] DMSO IC50/combination IC50)” value ([2]; A549, in combination with 0.02 μM K102, NC: no change) was 2.74. For the same compound, the “Ratio ([…] DMSO IC50/combination IC50)” value ([2]; A549, in combination with 0.03 μM K101E (footnote, Olaparib)) was 1.15, the “Ratio ([…] DMSO IC50/combination IC50)” value ([2]; A549, in combination with 0.05 μM K101A, NC: no change) was 1.38 and the “Ratio ([…] DMSO IC50/combination IC50)” value ([2]; A549, in combination with 0.3 μM K101E (footnote, Olaparib)) was 1.30. For the same compound, the “Ratio ([…] DMSO IC50/combination IC50)” value ([2]; A549, in combination with 0.5 μM K101A, ratio >2 synergistic, <0.5 antagonistic, NC: no change) was 2.76, the “Ratio ([…] DMSO IC50/combination IC50)” value ([2]; A549, in combination with 3 μM K101E (footnote, Olaparib)) was 1.97 and the “effect in combination with the PKC activator compounds in inhibiting the growth of A549 cells” value ([2]; PKC activator compounds (K101A, K101E, K102)) was “synergistic effect”. The “Combination in A549: K101A (synergism/antagonism)” value ([2]; A549) was “Synergism”, the “Combination in A549: K101E (synergism/antagonism)” value ([2]; agent assayed in combination with K101E, A549) was “None” and the “Combination in A549: K102 (synergism/antagonism)” value ([2]; A549) was “Synergism”.
With `CC(=O)OC12CC(C)C3(O)C(C4OC4(CO)CC4(O)C(O)C(C)=CC43)C1C2(C)C` (stereo not shown) [Compound K101D] the “Top Inhibition %” value (HT29) was 10.0%, the “Top Inhibition %” value (Colo205) was 42.3% and the “Top Inhibition %” value (H838) was 27.7%. For the same compound, the “Top Inhibition %” value (H1915) was 28.6%, the “Top Inhibition %” value (BxPC-3) was 37.49% and the EC50 (THP1; THP1 (N-RAS: G12D), absolute EC50, read-out: Ab EC50) was > 30 µM. The “Top Inhibition %” value (THP1; THP1, % of top inhibition) was 33.6%, the EC50 (THP1; THP1, relative EC50, read-out: Re EC50) was 14 µM and the EC50 (HL60; HL60 (N-RAS: Q61L), absolute EC50, read-out: Ab EC50) was > 30 µM. For the same compound, the “Top Inhibition %” value (HL60; HL60, % of top inhibition) was 14.4%, the EC50 (AGS; AGS (gastric, K-RAS: G12D), absolute EC50, read-out: Ab EC50) was > 30 µM and the “Top Inhibition %” value (AGS; AGS, % of top inhibition) was 13.5%. The EC50 (HCT116; HCT116 (K-RAS: G13D), absolute EC50, read-out: Ab EC50) was > 30 µM, the “Top Inhibition %” value (HCT116; HCT116, % of top inhibition) was 3.0% and the EC50 (KP-4; KP-4 (K-RAS: G12C), absolute EC50, read-out: Ab EC50) was > 30 µM. For the same compound, the “Top Inhibition %” value (KP-4; KP-4, % of top inhibition) was 47.9%, the EC50 (KP-4; KP-4, relative EC50, read-out: Re EC50) was 5.47 µM and the EC50 (SW620; SW620 (K-RAS: G12V), absolute EC50, read-out: Ab EC50) was > 30 µM. For the same compound, the “Top Inhibition %” value (SW620; SW620, % of top inhibition) was 0.0%, the EC50 (A549; A549 (K-RAS: G12S), absolute EC50, read-out: Ab EC50) was > 30 µM and the “Top Inhibition %” value (A549; A549, % of top inhibition) was 44.4%. For the same compound, the EC50 (A549; A549, relative EC50, read-out: Re EC50) was 7.72 µM, the EC50 (LS180; LS180 (K-RAS: G12D), absolute EC50, read-out: Ab EC50) was > 30 µM and the “Top Inhibition %” value (LS180; LS180, % of top inhibition) was 8.2%. The EC50 (H727; H727 (K-RAS: G12V), absolute EC50, read-out: Ab EC50) was > 30 µM, the “Top Inhibition %” value (H727; H727, % of top inhibition) was 31.8% and the EC50 (H727; H727, relative EC50, read-out: Re EC50) was 8.37 µM. The “Top Inhibition %” value (H358; % of top inhibition) was 23.0%, the EC50 (H358; absolute EC50, read-out: Ab EC50) was > 30 µM and the EC50 (H358; relative EC50, read-out: Re EC50) was 11 µM. For the same compound, the EC50 (Capan-1; Capan-1 (K-RAS: G12V), absolute EC50, read-out: Ab EC50) was > 30 µM, the “Top Inhibition %” value (Capan-1; Capan-1, % of top inhibition) was 22.3% and the EC50 (Capan-1; Capan-1, relative EC50, read-out: Re EC50) was 8.66 µM. For the same compound, the EC50 (H441; H441 (K-RAS: G12V), absolute EC50, read-out: Ab EC50) was > 30 µM, the “Top Inhibition %” value (H441; H441, % of top inhibition) was 11.6% and the EC50 (MiaPaCa-2; MiaPaCa-2 (K-RAS: G12C), absolute EC50, read-out: Ab EC50) was > 30 µM. The “Top Inhibition %” value (MiaPaCa-2; MiaPaCa-2, % of top inhibition) was 18.6%.
